Test results reported in patent publication US11554097B2, “Recombinant production of hybrid lipid-biopolymer materials that self-assemble and encapsulate agents” (Duke University, priority 2017, dated 2023).

Legend:
[1] = Encapsulated drug stability, dialysis against PBS; format: physicochemical
Experimental: Encapsulated drug stability: To measure the encapsulated drug's stability, we selected the encapsulated DOX M-EL[…],80 sample as a model system. […] Free DOX and encapsulated DOX were both made to 400 μM and 250 μL was added with a syringe to small volume Slide-a-Lyzer dialysis cassettes with a 3,500 Da molecular weight cutoff. […] At various time points, 3 mL of the filtrate was removed and replaced with fresh PBS. The fluorescence of the starting sample, filtrate, and retentate were measured in duplicate with a Wallac 1420 Victor3 Plate Reader (Perkin Elmer). Relative fluorescing units were converted to DOX concentrations using a standard curve made using serial dilution of free and encapsulated DOX. […] The cumulative DOX released was calculated and plotted as a function of dialysis time. […] At the end of the one week study, the retentate from each sample was removed and measured.

[2] = cited from earlier work

## COc1cccc2c1C(=O)c1c(O)c3c(c(O)c1C2=O)C[C@@](O)(C(=O)CO)C[C@@H]3O[C@H]1C[C@H](N)[C@H](O)[C@H](C)O1 [DOXFree, doxorubicin]
[1]; after a week at 37° C.
  DOX filtered out of cassette: 99%
[1]; dialysis against PBS, 37° C.
  time to reach equilibrium in dialysis: ≤ 24 h
[2]
  octanol-water distribution coefficient (log D pH 7.5): 2.4
